Measured values: US20110263647A1 (AMGEN INC., priority 2009, published 2011)
Where a name gives a salt, the structure may show the parent alone.

Molecular target: T1, PKBα (Homo sapiens, UniProt P31749)
T1 construct: fused on or other part: His6 tag is likely on the Upstate products
Experiment: PKB kinase assay (P33-labeled ATP, peptide substrate, filter plate)
Format: biochemical
Details: with respect to PKBα
From the text: The kinase assay for evaluating PKB activity comprises active PKB enzymes, a PKB specific substrate, and P^33-labeled ATP. Two form of PKBα enzymes were used, the full length PKBα and a kinase domain of PKBα with pleckstrin domain (amino acids 1-117) deleted. Both PKB enzymes were obtained from Upstate cell signaling solutions (Cat.# 14-276 and 14-341). The PKB substrate used is a synthetic peptide (ARKRERTYSFGHHA (SEQ ID NO: 1)) as described in Obata et al., J. Biol. Chem. 275 (46), 36108-36115 (2000). The phosphorylated substrate was captured by a phosphocellulose membrane filter plate (MILLIPORE) and measured by a Wallac Microbeta liquid scintillation counter (Perkin Elmer). Table 1 provides the IC50 values obtained for each of the examples with respect to PKBα.

T1 sequence (P31749 118-472 limits assumed): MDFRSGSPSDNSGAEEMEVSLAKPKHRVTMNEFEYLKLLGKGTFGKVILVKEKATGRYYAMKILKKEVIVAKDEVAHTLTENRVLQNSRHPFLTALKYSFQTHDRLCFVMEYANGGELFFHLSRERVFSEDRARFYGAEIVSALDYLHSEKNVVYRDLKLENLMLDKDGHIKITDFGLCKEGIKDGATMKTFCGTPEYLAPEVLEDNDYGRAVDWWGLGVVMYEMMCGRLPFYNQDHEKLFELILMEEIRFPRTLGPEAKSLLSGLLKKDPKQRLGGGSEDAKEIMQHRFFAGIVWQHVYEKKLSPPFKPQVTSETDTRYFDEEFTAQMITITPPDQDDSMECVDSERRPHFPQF

IC50 [µM]	Compound
< 0.05	N[C@H](CNc1ncc(-c2ccc3cnc(F)cc3c2)s1)[C@@H](O)c1ccc(C(F)(F)F)cc1 [Example 37, (1S,2R)-2-Amino-3-((5-(3-fluoro-6-isoquinolinyl)-1,3-thiazol-2-yl)amino)-1-(4-(trifluoromethyl)phenyl)-1-propanol trifluoroacetate]
1 to 10	N[C@H](CCc1ncc(-c2ccc3cnc(F)cc3c2)s1)Cc1ccc(C(F)(F)F)cc1 [Example 48, (2R)-4-(5-(3-Fluoroisoquinolin-6-yl)thiazol-2-yl)-1-(4-(trifluoromethyl)phenyl)butan-2-amine]
0.05 to 1	CS(=O)(=O)C[C@@H](c1ccc(C(F)(F)F)cc1)[C@H](N)CNc1ncc(-c2ccc3cnc(F)cc3c2)s1 [Example 34, N-((2S,3S)-2-Amino-4-(methylsulfonyl)-3-(4-(trifluoromethyl)phenyl)butyl)-5-(3-fluoroisoquinolin-6-yl)thiazol-2-amine]
0.05 to 1	Cn1ccc(C[C@H](N)CNc2ncc(-c3ccc4cnc(F)cc4c3)s2)cc1=O [Example 46]
1 to 10	N[C@H](CNc1ncc(-c2ccc3cnc(F)cc3c2)s1)CN1CCCC(C(F)(F)F)C1 (stereo partly drawn) [Example 30, N—((R)-2-Amino-3-((3S)-(trifluoromethyl)piperidin-1-yl)propyl)-5-(3-fluoroisoquinolin-6-yl)thiazol-2-amine]
< 0.05	N[C@H](CNc1ncc(-c2ccc3cnc(F)cc3c2)s1)Cc1ccc(Cl)c(Cl)c1 [Example 14, N—((S)-2-amino-3-(3,4-dichlorophenyl)propyl)-5-(3-fluoroisoquinolin-6-yl)thiazol-2-amine]
0.05 to 1	NC(CCc1nc(CO)c(-c2ccc3cnc(F)cc3c2)s1)Cc1ccc(C(F)(F)F)cc1 (racemic) [Example 51, (±)-(2-(3-Amino-4-(4-(trifluoromethyl)phenyl)butyl)-5-(3-fluoroisoquinolin-6-yl)thiazol-4-yl)methanol]
< 0.05	CC#Cc1nc(NC[C@@H](N)Cc2ccc(C(F)(F)F)nc2)sc1-c1ccc2cnc(F)cc2c1 [Example 35, N—((S)-2-Amino-3-(6-(trifluoromethyl)pyridin-3-yl)propyl)-5-(3-fluoroisoquinolin-6-yl)-4-(prop-1-ynyl)thiazol-2-amine]
< 0.05	COC(=O)c1nc(NC[C@@H](N)Cc2ccc(C(F)(F)F)cc2)sc1-c1ccc2cnc(F)cc2c1 [Example 20, Methyl 2-((S)-2-amino-3-(4-(trifluoromethyl)phenyl)propylamino)-5-(3-fluoroisoquinolin-6-yl)thiazole-4-carboxylate]
< 0.05	COCc1nc(NC[C@@H](N)[C@@H](C)c2ccc(C(F)(F)F)nc2)sc1-c1ccc2cnc(F)cc2c1 [Example 13, N-((2S,3S)-2-Amino-3-(6-(trifluoromethyl)pyridin-3-yl)butyl)-5-(3-fluoroisoquinolin-6-yl)-4-(methoxymethyl)thiazol-2-amine]
< 0.05	COCc1nc(CC[C@@H](N)Cc2ccc(C(F)(F)F)nc2)sc1-c1ccc2cnc(F)cc2c1 [Example 49, (2R)-4-(5-(3-Fluoroisoquinolin-6-yl)-4-(methoxymethyl)thiazol-2-yl)-1-(6-(trifluoromethyl)pyridin-3-yl)butan-2-amine]
0.05 to 1	NC(CNc1ncc(-c2ccc3cnc(F)cc3c2)s1)Cn1ccc(C(F)(F)F)n1 (stereo in doubt) [Example 29, N—((S)-2-Amino-3-(3-(trifluoromethyl)-1H-pyrazol-1-yl)propyl)-5-(3-fluoroisoquinolin-6-yl)thiazol-2-amine]
< 0.05	N[C@H](CNc1ncc(-c2ccc3cnc(F)cc3c2)s1)Cc1ccc(C(F)F)cc1 [Example 42, (2S)-3-(4-(difluoromethyl)phenyl)-N-1-(5-(3-fluoro-6-isoquinolinyl)-1,3-thiazol-2-yl)-1-2-propanediamine trifluoroacetate]
0.05 to 1	COC(=O)c1nc(NC[C@@H](N)[C@@H](C)c2ccc(C(F)(F)F)nc2)sc1-c1ccc2cnc(F)cc2c1 [Example 11, Methyl 2-((2S,3S)-2-amino-3-(6-(trifluoromethyl)pyridin-3-yl)butylamino)-5-(3-fluoroisoquinolin-6-yl)thiazole-4-carboxylate]
1 to 10	N[C@H](CNc1nc(C(=O)NC2CC2)c(-c2ccc3cnc(F)cc3c2)s1)Cc1ccc(C(F)(F)F)cc1 [Example 23, 2-((S)-2-Amino-3-(4-(trifluoromethyl)phenyl)propylamino)-N-cyclopropyl-5-(3-fluoroisoquinolin-6-yl)thiazole-4-carboxamide]

Compound	IC50 [µM]
CC(C)(C)OC(=O)N[C@@H](Cc1ccc(C(F)(F)F)nc1)CN(C(=O)OC(C)(C)C)c1ncc(-c2ccc3cnc(F)cc3c2)s1 [Example 1, tert-Butyl ((2S)-2-((tert-butoxycarbonyl)amino)-3-(6-(trifluoromethyl)-3-pyridinyl)propyl)(5-(3-fluoro-6-isoquinolinyl)-1,3-thiazol-2-yl)carbamate]	1 to 10
CC(C)(C)OC(=O)N[C@@H](Cc1ccc(C(F)F)cc1)CN(C(=O)OC(C)(C)C)c1ncc(-c2ccc3cnc(F)cc3c2)s1 [Example 41, tert-Butyl ((2S)-2-((tert-butoxycarbonyl)amino)-3-(4-(difluoromethyl)phenyl)propyl)(5-(3-fluoro-6-isoquinolinyl)-1,3-thiazol-2-yl)carbamate]	1 to 10
